In PMC10579241, “Impact of trifluoromethyl and sulfonyl groups on the biological activity of novel aryl-urea derivatives: synthesis, in-vitro, in-silico and SAR studies” (Scientific Reports, 2023):
In brackets after ≈: the same amount, converted by molar mass. Where two headings read alike, the source gives them in different places. Marks after values point to notes of the source that are not given here.

Tests used:
[1] = tested on: osteosarcoma cell line (HOS); assay: cells; format: cell-based; conditions: Homo sapiens, 48 h; for mortality at 100 µg/mL: 100 μg/mL
[2] = tested on: human lung carcinoma (A549); assay: cells; format: cell-based; conditions: for mortality at 100 µg/mL: A549, 48 h, 100 μg/mL
Candida albicans [3] = assay: MIC by serial dilution (agar wells), C. albicans; format: cell-based
Escherichia coli [4] = assay: Agar well diffusion, E. coli; format: cell-based; conditions: Escherichia coli, read-out: Inhibition zones diameter
skin cancer (A431) = assay: cells; format: cell-based; conditions: Homo sapiens, A-431, 100 μg/mL, 48 h
colon cancer (HCT116) = assay: cells; format: cell-based; conditions: Homo sapiens; for mortality at 100 µg/mL: HCT-116, 48 h, 100 μg/mL
Bacillus mycoides [5] = assay: microbe, parasite or virus in culture; format: cell-based
[6] = tested on: pancreatic cancer cell line (PACA2); assay: cells; format: cell-based; conditions: Homo sapiens, PaCa-2, 48 h; for IC50: MTT; for mortality at 100 µg/mL: 100 μg/mL
prostate cancer (PC3) = assay: cells; format: cell-based; conditions: Homo sapiens, 48 h; for mortality at 100 µg/mL: 100 μg/mL
Candida albicans [7] = assay: Agar well diffusion, C. albicans; format: cell-based; conditions: for zone of inhibition at 10000 µg/mL: Candida albicans, read-out: Inhibition zones diameter
Escherichia coli [8] = assay: MIC by serial dilution (agar wells), E. coli; format: cell-based
in vitro = format: cell-based; conditions: human, BJ1 normal skin fibroblast cells, 100 μg/mL
Bacillus mycoides [9] = assay: microbe, parasite or virus in culture; format: cell-based; conditions: for zone of inhibition at 10000 µg/mL: Bacillus mycoides, read-out: Inhibition zones diameter
[10] = tested on: hepatocellular carcinoma cell line (HePG2); assay: cells; format: cell-based; conditions: Homo sapiens, 48 h
PACA2 [11] = assay: DNA damage, comet assay, PACA2; format: cell-based, human
PACA2 [12] = assay: DNA fragmentation assay, PACA2; format: cell-based, human
CDKN2A = assay: qRT-PCR, CDKN2A in PACA2 cells; format: cell-based, human; conditions: versus negative untreated sample
PALB2 = assay: qRT-PCR, PALB2 in PACA2 cells; format: cell-based, human; conditions: versus negative untreated sample
[13] = tested on: normal skin fibroblast cell line (BJ1); assay: cells; format: cell-based; conditions: Homo sapiens, Skin fibroblast, MTT, 48 h
[14] = 0.00488 mg/mL, 150 µL in DMSO, 15 mm agar well
[15] = 0.00975 mg/mL, 150 µL in DMSO, 15 mm agar well
[16] = 0.0195 mg/mL, 150 µL in DMSO, 15 mm agar well
[17] = 0.0391 mg/mL, 150 µL in DMSO, 15 mm agar well
[18] = 0.0781 mg/mL, 150 µL in DMSO, 15 mm agar well
[19] = 0.1563 mg/mL, 150 µL in DMSO, 15 mm agar well
[20] = 0.3125 mg/mL, 150 µL in DMSO, 15 mm agar well
[21] = 0.625 mg/mL, 150 µL in DMSO, 15 mm agar well
[22] = 1.25 mg/mL, 150 µL in DMSO, 15 mm agar well
[23] = 2.50 mg/mL, 150 µL in DMSO, 15 mm agar well
[24] = 5.00 mg/mL, 150 µL in DMSO, 15 mm agar well
[25] = 10.0 mg/mL, 150 µL in DMSO, 15 mm agar well
[26] = read-out: Minimum inhibition concentration (MIC)

Cc1ccc(S(=O)(=O)NC(=O)Nc2ccccc2C(F)(F)F)cc1 [Compound 11, 4-Methyl-N-[(2-{trifluoromethyl}phenyl)carbamoyl]benzenesulfonamide]
mortality at 100 µg/mL [1]: 44.2 ± 1.11% | IC50 ([2]; MTT, 48 h): 149.3 ± 0.23 µM | zone of inhibition at 4.88 µg/mL (Candida albicans [3]; [14]): 0 mm | zone of inhibition at 9.75 µg/mL (Candida albicans [3]; [15]): 0 mm | zone of inhibition at 19.5 µg/mL (Candida albicans [3]; [16]): 0 mm | zone of inhibition at 39.1 µg/mL (Candida albicans [3]; [17]): 0 mm | zone of inhibition at 78.1 µg/mL (Candida albicans [3]; [18]): 16 mm | zone of inhibition at 156.3 µg/mL (Candida albicans [3]; [19]): 17 mm | zone of inhibition at 312.5 µg/mL (Candida albicans [3]; [20]): 20 mm | zone of inhibition at 625 µg/mL (Candida albicans [3]; [21]): 22 mm | zone of inhibition at 1250 µg/mL (Candida albicans [3]; [22]): 24 mm | zone of inhibition at 2500 µg/mL (Candida albicans [3]; [23]): 25 mm | zone of inhibition at 5000 µg/mL (Candida albicans [3]; [24]): 26 mm | zone of inhibition at 10000 µg/mL (Candida albicans [3]; [25]): 28 mm | MIC (Candida albicans [3]; [26]): 78.1 µg/mL (≈ 218 µM) | zone of inhibition at 10000 µg/mL (Escherichia coli [4]): 27 ± 0.58 mm | mortality at 100 µg/mL (skin cancer (A431)): 10.5 ± 1.13% | mortality at 100 µg/mL (colon cancer (HCT116)): > 75% | IC50 (colon cancer (HCT116); HCT-116, MTT, 48 h): 161.6 ± 0.24 µM | zone of inhibition at 4.88 µg/mL (Bacillus mycoides [5]; read-out: Inhibition zone): 0 mm | zone of inhibition at 9.75 µg/mL (Bacillus mycoides [5]; read-out: Inhibition zone): 0 mm | zone of inhibition at 19.5 µg/mL (Bacillus mycoides [5]; read-out: Inhibition zone): 0 mm | zone of inhibition at 39.1 µg/mL (Bacillus mycoides [5]; read-out: Inhibition zone): 15 mm | zone of inhibition at 78.1 µg/mL (Bacillus mycoides [5]; read-out: Inhibition zone): 16 mm | zone of inhibition at 156.3 µg/mL (Bacillus mycoides [5]; read-out: Inhibition zone): 16 mm | zone of inhibition at 312.5 µg/mL (Bacillus mycoides [5]; read-out: Inhibition zone): 17 mm | zone of inhibition at 625 µg/mL (Bacillus mycoides [5]; read-out: Inhibition zone): 17 mm | zone of inhibition at 1250 µg/mL (Bacillus mycoides [5]; read-out: Inhibition zone): 18 mm | zone of inhibition at 2500 µg/mL (Bacillus mycoides [5]; read-out: Inhibition zone): 22 mm | zone of inhibition at 5000 µg/mL (Bacillus mycoides [5]; read-out: Inhibition zone): 24 mm | zone of inhibition at 10000 µg/mL (Bacillus mycoides [5]; read-out: Inhibition zone): 27 mm | MIC (Bacillus mycoides [5]; [26]): 39.1 µg/mL (≈ 109 µM) | IC50 [6]: 80.7 µM | IC50 (prostate cancer (PC3); MTT): 114.7 ± 0.21 µM | Inhibition zones diameter (Candida albicans [7]; C. albicans, 200 μL of 10 mg/mL in DMSO in 15 mm holes, overnight 37 °C): 32 ± 0.17 mm | zone of inhibition at 10000 µg/mL (Candida albicans [7]): 32 mm | zone of inhibition at 4.88 µg/mL (Escherichia coli [8]; [14]): 0 mm | zone of inhibition at 9.75 µg/mL (Escherichia coli [8]; [15]): 0 mm | zone of inhibition at 19.5 µg/mL (Escherichia coli [8]; [16]): 0 mm | zone of inhibition at 39.1 µg/mL (Escherichia coli [8]; [17]): 0 mm | zone of inhibition at 78.1 µg/mL (Escherichia coli [8]; [18]): 0 mm | zone of inhibition at 156.3 µg/mL (Escherichia coli [8]; [19]): 16 mm | zone of inhibition at 312.5 µg/mL (Escherichia coli [8]; [20]): 18 mm | zone of inhibition at 625 µg/mL (Escherichia coli [8]; [21]): 20 mm | zone of inhibition at 1250 µg/mL (Escherichia coli [8]; [22]): 22 mm | zone of inhibition at 2500 µg/mL (Escherichia coli [8]; [23]): 24 mm | zone of inhibition at 5000 µg/mL (Escherichia coli [8]; [24]): 28 mm | zone of inhibition at 10000 µg/mL (Escherichia coli [8]; [25]): 30 mm | MIC (Escherichia coli [8]; [26]): 156 µg/mL (≈ 436 µM) | mortality at 48 h, 100 µg/mL (in vitro): 19.2 ± 0.57% | Inhibition zones diameter (Bacillus mycoides [9]; B. mycoides, 200 μL of 10 mg/mL in DMSO in 15 mm holes, overnight 37 °C): 31 ± 0.52 mm | zone of inhibition at 10000 µg/mL (Bacillus mycoides [9]): 31 mm

Cc1ccc(NC(=O)Nc2ccc(C(F)(F)F)cc2)cc1 [Compound 13, 1-(p-Tolyl)-3-[4-(trifluoromethyl)phenyl]urea]
mortality at 100 µg/mL [1]: ~74.3% | mortality at 100 µg/mL [2]: 3.5 ± 0.55% | mortality at 100 µg/mL ([10]; 100 μg/mL): 100% | IC50 ([10]; MTT): 121.7 ± 0.85 µM | zone of inhibition at 10000 µg/mL (Escherichia coli [4]): 18 ± 1.84 mm | mortality at 100 µg/mL (skin cancer (A431)): 1.3 ± 0.78% | mortality at 100 µg/mL (colon cancer (HCT116)): 11.5 ± 1.19% | mortality at 100 µg/mL [6]: 35.8 ± 0.91% | mortality at 100 µg/mL (prostate cancer (PC3)): 47.2 ± 0.63% | zone of inhibition at 10000 µg/mL (Candida albicans [7]): 18 ± 0.66 mm | mortality at 48 h, 100 µg/mL (in vitro): 84.2 ± 1.61% | zone of inhibition at 10000 µg/mL (Bacillus mycoides [9]): 16 ± 0.41 mm

Cc1ccc(NC(=O)Nc2cc(C(F)(F)F)cc(C(F)(F)F)c2)cc1 [Compound 15, 1-[3,5-Bis(trifluoromethyl)phenyl]-3-(p-tolyl)urea]
IC50 ([1]; MTT): 37.3 ± 0.37 µM | DNA damaged cells % (mean ± SEM) (PACA2 [11]): 21.00 ± 1.29^a % | Class 0 (no tail), number of cells (PACA2 [11]; of 400 cells analyzed): 316 | Class 1 (tail length < diameter of nucleus), number of cells (PACA2 [11]; of 400 cells analyzed): 31 | Class 2 (tail length between 1 and 2 × the diameter of nucleus), number of cells (PACA2 [11]; of 400 cells analyzed): 25 | Class 3 (tail length > 2 × the diameter of nucleus), number of cells (PACA2 [11]; of 400 cells analyzed): 28 | No. of cells, Comets (PACA2 [11]; of 400 cells analyzed): 84 | mortality at 100 µg/mL [2]: > 50% | Change (DNA fragmentation versus untreated cells) (PACA2 [12]): 20.20 | DNA fragmentation % M ± SEM (PACA2 [12]; IC50 concentration, 24 h): 32.3 ± 0.74^ab % | Inhibition (PACA2 [12]; doxorubicin = 0.0): 12.22 | CDKN2A gene expression level (CDKN2A): significantly reduced | zone of inhibition at 10000 µg/mL (Escherichia coli [4]): 24 ± 0.68 mm | PALB2 gene expression level (PALB2): significantly reduced | mortality at 100 µg/mL (colon cancer (HCT116)): 49.6 ± 1.23% | mortality at 100 µg/mL [6]: > 75% | IC50 [6]: 82.5 ± 0.21 µM | mortality at 100 µg/mL (prostate cancer (PC3)): > 75% | zone of inhibition at 10000 µg/mL (Candida albicans [7]): 24 ± 1.22 mm | IC50 [13]: 94.4 ± 0.71 µM | zone of inhibition at 10000 µg/mL (Bacillus mycoides [9]): 23 ± 0.35 mm
